# Results: ChEMBL document CHEMBL4706484, “Apigenin-rivastigmine hybrids as multi-target-directed liagnds for the treatment of Alzheimer's disease” (Eur J Med Chem, 2020)
# Activity calls are given as the source filed them. No cut-off for these calls is given here.
# Assays:
# Danio rerio [1] = species on record: Danio rerio; experiment: Antialzheimer activity against 3 dpf zebrafish model of AlCl3-induced AD assessed as efficacy on motility distance at 12.5 ug/ml relative to control; assay type: functional; settings: dose 12.5 µg/ml
# Cholinesterase [2] = biological target: T1, Cholinesterase (Homo sapiens, UniProt P06276); experiment: Pseudo-irreversible inhibition of human serum BChE assessed as enzyme recovery activity at 0.1 times IC50 measured at 240 mins using diluted compound relative to basal level; assay type: cell-free; set-up: scale not given: the % may be the effect or the level left
# T1 sequence (P06276 whole entry): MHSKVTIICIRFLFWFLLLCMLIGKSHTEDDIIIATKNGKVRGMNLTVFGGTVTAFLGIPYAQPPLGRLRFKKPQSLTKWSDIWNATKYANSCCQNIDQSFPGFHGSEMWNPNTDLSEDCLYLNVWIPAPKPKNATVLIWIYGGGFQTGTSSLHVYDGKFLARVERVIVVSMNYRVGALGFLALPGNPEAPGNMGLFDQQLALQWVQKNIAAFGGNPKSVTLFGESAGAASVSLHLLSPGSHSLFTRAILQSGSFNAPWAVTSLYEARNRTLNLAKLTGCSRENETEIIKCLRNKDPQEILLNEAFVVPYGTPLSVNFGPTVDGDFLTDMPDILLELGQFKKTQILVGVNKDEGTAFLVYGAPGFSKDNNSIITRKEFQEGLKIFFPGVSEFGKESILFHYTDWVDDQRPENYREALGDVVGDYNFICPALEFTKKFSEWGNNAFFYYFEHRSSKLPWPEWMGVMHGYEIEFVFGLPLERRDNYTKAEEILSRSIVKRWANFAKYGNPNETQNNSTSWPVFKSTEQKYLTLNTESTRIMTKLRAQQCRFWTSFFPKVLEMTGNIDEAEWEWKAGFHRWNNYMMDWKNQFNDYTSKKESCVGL
# [3] = Metal chelating activity assessed as Cu2+-compound complex formation by measuring absorption wavelength at 37.5 uM in presence of 37.5 uM CuCl2 by UV-Vis spectroscopic analysis
# SH-SY5Y = experiment: Neuroprotective activity against amyloid beta (1 to 42 residues)-induced cell injury in human SH-SY5Y cells assessed as cell viability at 5 uM preincubated for 2 hrs followed by H2O2 addition and measured after 24 hrs by MTT assay (reference value: 52.3 %); assay type: functional; settings: time 26 hrs, read-out: Activity
# [4] = biological target: Amyloid-beta precursor protein (Homo sapiens) (UniProt P05067); experiment: Inhibition of self-induced amyloid beta (1 to 42) (unknown origin) aggregation at 25 uM measured after 24 hrs by TEM analysis
# Sequence of Amyloid-beta precursor protein (Homo sapiens) (P05067 whole entry): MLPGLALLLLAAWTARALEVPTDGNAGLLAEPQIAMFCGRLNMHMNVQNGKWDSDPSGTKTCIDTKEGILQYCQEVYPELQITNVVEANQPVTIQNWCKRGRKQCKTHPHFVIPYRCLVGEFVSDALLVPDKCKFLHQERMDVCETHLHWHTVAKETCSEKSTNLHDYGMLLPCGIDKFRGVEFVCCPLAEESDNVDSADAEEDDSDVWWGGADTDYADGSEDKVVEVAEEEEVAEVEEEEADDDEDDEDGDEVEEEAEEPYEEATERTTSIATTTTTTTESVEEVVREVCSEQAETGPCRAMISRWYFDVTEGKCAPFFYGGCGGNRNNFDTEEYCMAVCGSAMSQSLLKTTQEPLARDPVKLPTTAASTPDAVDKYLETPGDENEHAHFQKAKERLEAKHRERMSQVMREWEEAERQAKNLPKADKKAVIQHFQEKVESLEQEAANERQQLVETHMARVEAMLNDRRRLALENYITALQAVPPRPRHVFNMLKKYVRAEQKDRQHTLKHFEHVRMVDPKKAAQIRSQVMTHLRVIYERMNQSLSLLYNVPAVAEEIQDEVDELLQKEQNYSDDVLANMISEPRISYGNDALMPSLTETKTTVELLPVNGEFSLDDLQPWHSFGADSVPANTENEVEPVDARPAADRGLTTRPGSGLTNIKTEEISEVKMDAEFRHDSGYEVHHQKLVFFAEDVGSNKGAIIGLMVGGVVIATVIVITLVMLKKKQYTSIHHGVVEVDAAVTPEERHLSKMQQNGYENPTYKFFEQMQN
# Acetylcholinesterase [5] = biological target: T2, Acetylcholinesterase (Homo sapiens, UniProt P22303); experiment: Inhibition of human erythrocytes AChE using acetylthiocholine iodide as substrate measured after 15 mins by Ellman's method; assay type: tissue-based, Erythrocyte
# T2 sequence (P22303 whole entry): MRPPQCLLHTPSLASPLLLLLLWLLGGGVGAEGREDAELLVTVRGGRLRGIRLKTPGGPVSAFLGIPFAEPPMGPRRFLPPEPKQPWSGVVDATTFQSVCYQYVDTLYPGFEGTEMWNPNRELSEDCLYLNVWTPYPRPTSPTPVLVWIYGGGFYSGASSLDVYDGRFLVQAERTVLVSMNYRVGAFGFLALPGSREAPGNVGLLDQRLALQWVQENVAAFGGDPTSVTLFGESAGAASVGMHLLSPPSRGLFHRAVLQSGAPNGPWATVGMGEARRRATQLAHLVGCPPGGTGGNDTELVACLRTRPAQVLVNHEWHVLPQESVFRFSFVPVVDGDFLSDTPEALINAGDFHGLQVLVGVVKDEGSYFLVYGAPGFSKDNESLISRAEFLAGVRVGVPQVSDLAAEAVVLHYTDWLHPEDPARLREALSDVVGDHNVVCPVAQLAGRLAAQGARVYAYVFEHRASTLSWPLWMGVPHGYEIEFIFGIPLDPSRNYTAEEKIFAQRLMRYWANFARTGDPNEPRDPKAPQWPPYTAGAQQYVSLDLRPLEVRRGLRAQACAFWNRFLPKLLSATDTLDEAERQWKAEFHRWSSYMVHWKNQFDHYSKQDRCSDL
# [6] = Acute toxicity in 2 dpf zebrafish assessed as abnormal intestine at 1.39 to 12.5 ug/ml measured after 3 days; assay type: tissue-based, Danio rerio; settings: in vivo, 72 h, dose 1.39-12.5 µg/ml, time 3 day
# Danio rerio [7] = species on record: Danio rerio; experiment: Antialzheimer activity against 3 dpf zebrafish model of AlCl3-induced AD assessed as efficacy on motility distance at 4.2 ug/ml relative to control; assay type: functional; settings: dose 4.2 µg/ml
# Danio rerio [8] = species on record: Danio rerio; experiment: Antialzheimer activity against 3 dpf zebrafish model of AlCl3-induced AD assessed as efficacy on motility distance at 1.4 ug/ml relative to control; assay type: functional; settings: dose 1.4 µg/ml
# [9] = Cytotoxicity against human L02 cells assessed as cell viability at 6.25 uM measured after 72 hrs by MTT assay relative to control; assay type: cell-based; settings: read-out: Activity
# [10] = Acute toxicity in 2 dpf zebrafish assessed as pericardial edema at 1.39 to 12.5 ug/ml measured after 3 days; set-up: species or system Danio rerio; settings: in vivo, 72 h, dose 1.39-12.5 µg/ml, time 3 day
# [11] = Acute toxicity in 2 dpf zebrafish assessed as bradycardia at 1.39 to 12.5 ug/ml measured after 3 days; set-up: species or system Danio rerio; settings: in vivo, 72 h, dose 1.39-12.5 µg/ml, time 3 day
# [12] = Acute toxicity in 2 dpf zebrafish assessed as death at 1.25 to 20 ug/ml measured after 3 days; set-up: species or system Danio rerio; settings: in vivo, 72 h, dose 1.25-20 µg/ml, time 3 day
# [13] = Acute toxicity in 2 dpf zebrafish assessed as maximum non-lethal concentration measured after 3 days; set-up: species or system Danio rerio; settings: in vivo, time 3 day
# [14] = Toxicity in 2 dpf zebrafish at 1.39 ug/ml measured after 3 days; set-up: species or system Danio rerio; settings: in vivo, 72 h, dose 1.39 µg/ml, time 3 day
# Mus musculus [15] = experiment: Reversal of scopolamine-induced Kunming mouse model of memory impairment assessed as spontaneous alteration at 20 mg/kg by Y-maze test (reference value: 41.6 %); assay type: functional
# [16] = Acute toxicity in 2 dpf zebrafish assessed as yolk sac absorption delay at 1.39 ug/ml measured after 3 days; set-up: species or system Danio rerio; settings: in vivo, 72 h, dose 1.39 µg/ml, time 3 day
# Mus musculus [17] = experiment: Antialzheimer activity in scopolamine-induced Kunming mouse model of memory impairment assessed as total reads in brain hippocampus at 10 mg/kg by illumina sequencing method (reference value: 100 %); assay type: functional
# Danio rerio [18] = species on record: Danio rerio; experiment: Protection against amyloid beta (1 to 40 residues)-induced vascular injury in transgenic zebrafish assessed as efficacy on motility at 1.4 ug/ml relative to control; assay type: functional; settings: dose 1.4 µg/ml
# [19] = Cytotoxicity against human L02 cells assessed as cell viability at 25 uM measured after 72 hrs by MTT assay relative to control; assay type: cell-based; settings: read-out: Activity
# [20] = Toxicity in 3 dpf zebrafish model of AlCl3-induced AD assessed as minimum toxic concentration; set-up: species or system Danio rerio; settings: in vivo
# Mus musculus [21] = experiment: Antialzheimer activity in scopolamine-induced Kunming mouse model of memory impairment assessed as GC bases ratio (QC data) in brain hippocampus at 10 mg/kg by illumina sequencing method (reference value: 53.64 %); assay type: functional
# [22] = Drug metabolism in rat liver microsomes assessed as metabolite formation by UPLC-MS/MS analysis; assay type: ADME, Microsome
# [23] = Metal chelating activity assessed as Al3+-compound complex formation by measuring absorption wavelength at 37.5 uM in presence of 37.5 uM AlCl3 by UV-Vis spectrophotometric analysis
# Mus musculus [24] = experiment: Antialzheimer activity in scopolamine-induced Kunming mouse model of memory impairment assessed as Q30 bases ratio (raw data) in brain hippocampus at 10 mg/kg by illumina sequencing method (reference value: 93.53 %); assay type: functional
# [25] = Acute toxicity in Kunming mouse assessed as hypokinesia at 2000 mg/kg; assay type: organism-based; settings: in vivo
# [26] = Toxicity in 3 dpf zebrafish model of AlCl3-induced AD at 12.5 to 200 microg/ml; set-up: species or system Danio rerio; settings: in vivo, dose 12.5-200 µg/ml
# Acetylcholinesterase [27] = biological target: T2, Acetylcholinesterase; experiment: Pseudo-irreversible inhibition of human erythrocytes AChE assessed as enzyme recovery activity at 0.1 times IC50 measured at 120 mins using diluted compound relative to control; assay type: tissue-based; set-up: scale not given: the % may be the effect or the level left; settings: Erythrocyte
# Danio rerio [28] = species on record: Danio rerio; experiment: Antialzheimer activity against 3 dpf zebrafish model of AlCl3-induced AD assessed as change in motility distance at 12.5 ug/ml (reference value: 5204 mm); assay type: functional; settings: dose 12.5 µg/ml
# [29] = Acute toxicity in 2 dpf zebrafish assessed as body shape at 1.39 to 12.5 ug/ml measured after 3 days; set-up: species or system Danio rerio; settings: in vivo, 72 h, dose 1.39-12.5 µg/ml, time 3 day
# [30] = Drug metabolism in rat intestine assessed as metabolite formation by UPLC-MS/MS analysis; assay type: ADME, tissue-based
# [31] = Acute toxicity in 2 dpf zebrafish assessed as short or misshapen jaw at 1.39 to 12.5 ug/ml measured after 3 days; set-up: species or system Danio rerio; settings: in vivo, 72 h, dose 1.39-12.5 µg/ml, time 3 day
# [32] = Acute toxicity in 2 dpf zebrafish assessed as slow blood flow at 1.39 to 12.5 ug/ml measured after 3 days; assay type: tissue-based, Danio rerio; settings: 72 h, dose 1.39-12.5 µg/ml, time 3 day
# [33] = Metal chelating activity assessed as Fe2+-compound complex formation at 37.5 uM in presence of 37.5 uM FeSO4 by UV-Vis spectrophotometric analysis
# Cholinesterase [34] = biological target: T1, Cholinesterase; experiment: Inhibition of human serum BChE using acetylthiocholine iodide as substrate measured after 15 mins by Ellman's method; assay type: cell-free
# [35] = Inhibition of copper-induced amyloid beta (1 to 42) (unknown origin) aggregation at 25 uM by ThT fluorescence assay relative to control
# Danio rerio [36] = species on record: Danio rerio; experiment: Protection against amyloid beta (1 to 40 residues)-induced vascular injury in transgenic zebrafish assessed as vascular injury rate at 4.2 ug/ml (reference value: 73.3 %); assay type: functional; settings: dose 4.2 µg/ml
# L02 = experiment: Hepatoprotective activity H2O2-induced cell injury in human L02 cells assessed as cell viability at 10 uM measured after 48 hrs by MTT assay (reference value: 56.89 %); assay type: functional; settings: read-out: Activity
# Butyrylcholinesterase = Butyrylcholinesterase (Rattus norvegicus, UniProt Q9JKC1); experiment: Inhibition of rat serum BChE using acetylthiocholine iodide as substrate measured after 15 mins by Ellman's method; assay type: cell-free
# Sequence of Butyrylcholinesterase (Q9JKC1 whole entry): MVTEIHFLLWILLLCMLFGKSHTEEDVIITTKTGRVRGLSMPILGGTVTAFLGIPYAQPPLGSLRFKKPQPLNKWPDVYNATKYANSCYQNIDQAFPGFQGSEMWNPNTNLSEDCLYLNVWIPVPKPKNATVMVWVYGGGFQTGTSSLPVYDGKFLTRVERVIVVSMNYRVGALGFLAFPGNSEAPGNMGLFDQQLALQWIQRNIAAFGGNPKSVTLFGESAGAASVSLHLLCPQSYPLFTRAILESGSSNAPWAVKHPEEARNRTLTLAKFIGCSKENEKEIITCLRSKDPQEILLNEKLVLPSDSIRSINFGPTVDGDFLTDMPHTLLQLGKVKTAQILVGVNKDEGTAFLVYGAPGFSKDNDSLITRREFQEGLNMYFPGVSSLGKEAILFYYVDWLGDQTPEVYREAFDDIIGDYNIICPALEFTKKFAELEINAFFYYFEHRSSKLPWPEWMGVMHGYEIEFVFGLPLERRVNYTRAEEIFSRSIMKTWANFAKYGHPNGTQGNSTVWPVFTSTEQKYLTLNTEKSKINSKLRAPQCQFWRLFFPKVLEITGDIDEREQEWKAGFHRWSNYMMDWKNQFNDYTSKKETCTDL
structure (smiles),measurement,setting,value
CCN(C)C(=O)Oc1ccc(-c2cc(=O)c3c(O)cc(OC(=O)N(C)CC)cc3o2)cc1,Efficacy,Danio rerio [1],73%
same,Activity,Cholinesterase [2],71.7%
same,Activity,[3],398 nm
same,viability at 5 µM,SH-SY5Y,63.9%
same,inhibition,[4],Active
same,IC50,Acetylcholinesterase [5],6.8 µM
same,Activity,[6],Non-Toxic
same,Efficacy,Danio rerio [7],65%
same,Efficacy,Danio rerio [8],59%
same,"viability at 72 h, 6.25 µM",[9],99%
same,Activity,[10],Non-Toxic
same,Activity,[11],Non-Toxic
same,Activity,[12],Non-Toxic
same,MNTC at 72 h,[13],12.5 µg/mL
same,Activity,[14],Non-Toxic
same,Activity,Mus musculus [15],57.1%
same,Activity,[16],Non-Toxic
same,Activity,Mus musculus [17],100%
same,Efficacy,Danio rerio [18],18%
same,"viability at 72 h, 25 µM",[19],83.9%
same,MTC,[20],12.5 µg/mL
same,Activity,Mus musculus [21],60.72%
same,Drug metabolism,[22],Metabolite_Detected
same,Activity,[23],384 nm
same,Activity,Mus musculus [24],92.76%
same,Activity,[25],Toxic
same,Activity,[26],Non-Toxic
same,Activity,Acetylcholinesterase [27],83.6%
same,Activity,Danio rerio [28],6733 mm
same,Activity,[29],Non-Toxic
same,Drug metabolism,[30],Metabolite_Detected
same,Activity,[31],Non-Toxic
same,Activity,[32],Non-Toxic
same,Activity,[33],inactive
same,IC50,Cholinesterase [34],16.1 µM
same,inhibition,[35],78.9%
same,Activity,Danio rerio [36],53%
same,viability at 10 µM,L02,75.6%
same,IC50,Butyrylcholinesterase,12.1 µM
